The supplement of paper PMC10307832

Assays:
Experiment in all cases: relative viability (nuclei count vs DMSO), 5 days (fraction); higher = more cells survive
XMD14-99 + AZD7762 = compound: CN1CCN(CC1)C2=CC(=C(C=C2)NC3=NC(=C(S3)C(=O)C4=C(C=CC=C4Cl)Cl)N)OC [XMD14-99] + NC(=O)Nc1cc(-c2cccc(F)c2)sc1C(=O)N[C@H]1CCCNC1 [AZD7762] (partner 0.2 µM)
In short: (§1)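 A single step with final 0.05% Triton X-100, 1% formaldehyde and 1 ug/ml Hoechst fixed the cells and stained nuclei 5 days after treatment. Lung cancer cell lines in 1536-well plates had been treated by pin tool the day after seeding with one drug alone or a fixed anchor-drug dose plus five library-drug doses (not always all listed) in √10 steps, and nuclei were counted on 4× images. Relative viability is the ratio of nuclei in treated wells to nuclei in vehicle wells, taken as the median of duplicate plates.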

AZD1208 + Decitabine = compound: N[C@@H]1CCCN(c2c(/C=C3\SC(=O)NC3=O)cccc2-c2ccccc2)C1 [AZD1208] + Nc1ncn([C@H]2C[C@H](O)[C@@H](CO)O2)c(=O)n1 [Decitabine] (partner 2 µM)
In short: as §1

AZD1208 + Crizotinib = compound: N[C@@H]1CCCN(c2c(/C=C3\SC(=O)NC3=O)cccc2-c2ccccc2)C1 [AZD1208] + C[C@@H](Oc1cc(-c2cnn(C3CCNCC3)c2)cnc1N)c1c(Cl)ccc(F)c1Cl [Crizotinib] (partner 1 µM)
In short: as §1

XMD14-99 + Palbociclib = compound: CN1CCN(CC1)C2=CC(=C(C=C2)NC3=NC(=C(S3)C(=O)C4=C(C=CC=C4Cl)Cl)N)OC [XMD14-99] + CC(=O)c1c(C)c2cnc(Nc3ccc(N4CCNCC4)cn3)nc2n(C2CCCC2)c1=O [Palbociclib] (partner 0.5 µM)
In short: as §1

NCI-H2085 showed a relative viability (XMD14-99 + AZD7762; first compound 0.08 µM) of 0.95, a relative viability (XMD14-99 + AZD7762; first compound 0.8 µM) of 0.914 and a relative viability (XMD14-99 + AZD7762; first compound 2.53 µM) of 0.881. The relative viability (XMD14-99 + AZD7762; first compound 8 µM) was 0.72, the relative viability (AZD1208 + Decitabine; first compound 0.08 µM) was 0.555 and the relative viability (AZD1208 + Decitabine; first compound 0.253 µM) was 0.491. The relative viability (AZD1208 + Decitabine; first compound 0.8 µM) was 0.587, the relative viability (AZD1208 + Decitabine; first compound 2.53 µM) was 0.544 and the relative viability (AZD1208 + Decitabine; first compound 8 µM) was 0.449. It also gave a relative viability (AZD1208 + Crizotinib; first compound 0.08 µM) of 0.703, a relative viability (AZD1208 + Crizotinib; first compound 0.253 µM) of 0.906 and a relative viability (AZD1208 + Crizotinib; first compound 0.8 µM) of 0.951. It also gave a relative viability (AZD1208 + Crizotinib; first compound 2.53 µM) of 0.865, a relative viability (AZD1208 + Crizotinib; first compound 8 µM) of 0.882 and a relative viability (XMD14-99 + Palbociclib; first compound 0.08 µM) of 0.453. For the same cell line, the relative viability (XMD14-99 + Palbociclib; first compound 0.8 µM) was 0.447, the relative viability (XMD14-99 + Palbociclib; first compound 2.53 µM) was 0.462 and the relative viability (XMD14-99 + Palbociclib; first compound 8 µM) was 0.41.
NCI-H2347 gave a relative viability (XMD14-99 + AZD7762; first compound 0.08 µM) of 0.814, a relative viability (XMD14-99 + AZD7762; first compound 0.8 µM) of 0.725 and a relative viability (XMD14-99 + AZD7762; first compound 2.53 µM) of 0.673. It also gave a relative viability (XMD14-99 + AZD7762; first compound 8 µM) of 0.505, a relative viability (AZD1208 + Decitabine; first compound 0.08 µM) of 0.599 and a relative viability (AZD1208 + Decitabine; first compound 0.253 µM) of 0.631. For the same cell line, the relative viability (AZD1208 + Decitabine; first compound 0.8 µM) was 0.564, the relative viability (AZD1208 + Decitabine; first compound 2.53 µM) was 0.671 and the relative viability (AZD1208 + Decitabine; first compound 8 µM) was 0.645. It also gave a relative viability (AZD1208 + Crizotinib; first compound 0.08 µM) of 0.626, a relative viability (AZD1208 + Crizotinib; first compound 0.253 µM) of 0.626 and a relative viability (AZD1208 + Crizotinib; first compound 0.8 µM) of 0.582. The relative viability (AZD1208 + Crizotinib; first compound 2.53 µM) was 0.648, the relative viability (AZD1208 + Crizotinib; first compound 8 µM) was 0.588 and the relative viability (XMD14-99 + Palbociclib; first compound 0.08 µM) was 0.439. It also gave a relative viability (XMD14-99 + Palbociclib; first compound 0.8 µM) of 0.43, a relative viability (XMD14-99 + Palbociclib; first compound 2.53 µM) of 0.4 and a relative viability (XMD14-99 + Palbociclib; first compound 8 µM) of 0.416.
NCI-H1944 gave a relative viability (XMD14-99 + AZD7762; first compound 0.08 µM) of 0.501, a relative viability (XMD14-99 + AZD7762; first compound 0.8 µM) of 0.539 and a relative viability (XMD14-99 + AZD7762; first compound 2.53 µM) of 0.436. It also gave a relative viability (XMD14-99 + AZD7762; first compound 8 µM) of 0.328, a relative viability (AZD1208 + Decitabine; first compound 0.08 µM) of 0.42 and a relative viability (AZD1208 + Decitabine; first compound 0.253 µM) of 0.437. For the same cell line, the relative viability (AZD1208 + Decitabine; first compound 0.8 µM) was 0.467, the relative viability (AZD1208 + Decitabine; first compound 2.53 µM) was 0.355 and the relative viability (AZD1208 + Decitabine; first compound 8 µM) was 0.372. The relative viability (AZD1208 + Crizotinib; first compound 0.08 µM) was 1.14, the relative viability (AZD1208 + Crizotinib; first compound 0.253 µM) was 1.16 and the relative viability (AZD1208 + Crizotinib; first compound 0.8 µM) was 0.985. For the same cell line, the relative viability (AZD1208 + Crizotinib; first compound 2.53 µM) was 1.01, the relative viability (AZD1208 + Crizotinib; first compound 8 µM) was 0.827 and the relative viability (XMD14-99 + Palbociclib; first compound 0.08 µM) was 0.32. The relative viability (XMD14-99 + Palbociclib; first compound 0.8 µM) was 0.36, the relative viability (XMD14-99 + Palbociclib; first compound 2.53 µM) was 0.328 and the relative viability (XMD14-99 + Palbociclib; first compound 8 µM) was 0.28.
With EKVX the relative viability (XMD14-99 + AZD7762; first compound 0.08 µM) was 0.654, the relative viability (XMD14-99 + AZD7762; first compound 0.8 µM) was 0.692 and the relative viability (XMD14-99 + AZD7762; first compound 2.53 µM) was 0.651. For the same cell line, the relative viability (XMD14-99 + AZD7762; first compound 8 µM) was 0.522, the relative viability (AZD1208 + Decitabine; first compound 0.08 µM) was 0.286 and the relative viability (AZD1208 + Decitabine; first compound 0.253 µM) was 0.356. The relative viability (AZD1208 + Decitabine; first compound 0.8 µM) was 0.327, the relative viability (AZD1208 + Decitabine; first compound 2.53 µM) was 0.351 and the relative viability (AZD1208 + Decitabine; first compound 8 µM) was 0.344. The relative viability (AZD1208 + Crizotinib; first compound 0.08 µM) was 0.887, the relative viability (AZD1208 + Crizotinib; first compound 0.253 µM) was 1.29 and the relative viability (AZD1208 + Crizotinib; first compound 0.8 µM) was 0.86. For the same cell line, the relative viability (AZD1208 + Crizotinib; first compound 2.53 µM) was 1.01, the relative viability (AZD1208 + Crizotinib; first compound 8 µM) was 0.88 and the relative viability (XMD14-99 + Palbociclib; first compound 0.08 µM) was 0.358. It also gave a relative viability (XMD14-99 + Palbociclib; first compound 0.8 µM) of 0.403, a relative viability (XMD14-99 + Palbociclib; first compound 2.53 µM) of 0.377 and a relative viability (XMD14-99 + Palbociclib; first compound 8 µM) of 0.361.
NCI-H1648 gave a relative viability (XMD14-99 + AZD7762; first compound 0.08 µM) of 0.715, a relative viability (XMD14-99 + AZD7762; first compound 0.8 µM) of 0.625 and a relative viability (XMD14-99 + AZD7762; first compound 2.53 µM) of 0.672. The relative viability (XMD14-99 + AZD7762; first compound 8 µM) was 0.581, the relative viability (AZD1208 + Decitabine; first compound 0.08 µM) was 0.631 and the relative viability (AZD1208 + Decitabine; first compound 0.253 µM) was 0.476. For the same cell line, the relative viability (AZD1208 + Decitabine; first compound 0.8 µM) was 0.464, the relative viability (AZD1208 + Decitabine; first compound 2.53 µM) was 0.547 and the relative viability (AZD1208 + Decitabine; first compound 8 µM) was 0.567. It also gave a relative viability (XMD14-99 + Palbociclib; first compound 0.08 µM) of 0.261, a relative viability (XMD14-99 + Palbociclib; first compound 0.8 µM) of 0.267 and a relative viability (XMD14-99 + Palbociclib; first compound 2.53 µM) of 0.268. It also gave a relative viability (XMD14-99 + Palbociclib; first compound 8 µM) of 0.289.
